Literature values, collected in patent US10815228B2, “Aztreonam derivatives and uses thereof” (ARIXA PHARMACEUTICALS, INC., priority 2017, dated 2020).

For `C[C@H]1[C@H](NC(=O)/C(=N/OC(C)(C)C(=O)O)c2csc(N)n2)C(=O)N1S(=O)(=O)O` [aztreonam, (2-((((E)-1-(2-aminothiazol-4-yl)-2-(((2S,3S)-2-methyl-4-oxo-1-sulfoazetidin-3-yl)amino)-2-oxoethylidene)amino)oxy)-2-methylpropanoic acid)], the oral bioavailability (aztreonam, statement in words) is given as “poor oral bioavailability” and the “oral bioavailability of aztreonam” value (orally administered aztreonam) is given as “less than 1%”.
